Data as given in patent publication US20140194361A1, “Vault Agents for Treating Chronic Kidney Disease” (priority 2010, published 2014).
Entries after “also recorded” stand apart in the source; their conditions may differ. No end group written: not given here.

Legend:
[1] = test system: extracellular matrix and signaling proteins of DN; test: expression of extracellular matrix and signaling proteins of DN in cells (immunoblotting); assay type: cell-based; conditions: for expression of extracellular matrix and signaling proteins of DN: serum-starved 48 h, treated 48 h, vs RGE/CRGE peptides
Protocol: Cells were serum-starved for 48 h and then untreated or treated with or without the unmodified RGD/RGE and modified CRGD/CRGE peptide for 48 h.

[2] = test system: type 2 diabetic db/db mice; test: prevention of progression of early DN in type 2 diabetic db/db mice; assay type: in vivo
Description: There was no change in blood pressure or plasma glucose in either the diabetic or non-diabetic animals.
There was no change in creatinine clearance in the cyclic-GRGESP-control peptide treated diabetic animals
In addition, glomerular volume measured by fractional volume of expansion by electron microscopy was normalized, p<0.05 after 12 weeks of treatment.
(§1) We investigated the ability of cyclic GRGDSP vs. GRGESP in a pilot study to prevent accumulation of glomerular lesions in early DN in 20 week old diabetic type 2 db/db vs non-diabetic db/m and diabetic type 1 Ins2Akita+ vs. non-diabetic Ins2+/+ mice with GRGESP and […] and observed up to 52% reduction in albuminuria in the type 2 diabetic mice (FIGS. 1-2) and ˜70% reduction in albuminuria in the type 1 diabetic mice (FIG. 6).

[3] = test system: type 1 diabetic Ins2Akita/+ mice; test: prevention of progression of DN in type 1 diabetic Ins2Akita/+ mice; assay type: in vivo
Protocol: as §1

[4] = test system: aged type 2 diabetic db/db mice; test: regression of established DN in aged type 2 diabetic db/db mice; assay type: in vivo
[5] = test system: integrin; test: experimentally verified RGD inhibitors blocking fibronectin adhesion to integrin
Description: Preferably, the synthetic analog inhibitors should have higher affinity to the integrin than the RGD loop of fibronectin. […] These two cyclic peptides were also used as reference structures to construct new inhibitors.
Combining the experimental results with the data obtained from our calculations we were able to predict the efficiency of the various inhibitors and to determine which structure is the most favorable fragment with regard to integrin binding energy.

[6] = 2400 μg/kg, after 4, 8 and 12 weeks of treatment
[7] = type 2 and type 1 diabetic mice, 400-2400 μg/kg

Substance: CGRGDSP (also: cyclic peptide, ring closure not given here) [cyclic GRGDSP peptide with an added cysteine linker (free cysteine residue)]
- integrin-mediated cellular signaling by TGF-β, AKT and STAT3 ([1]; kinetic studies and immunoblotting): inhibition
- expression of extracellular matrix and signaling proteins of DN [1]: significantly reduced

Substance: GRGDSP [cyclic-GRGDSP]
- amelioration of albumin excretion rate [2, 6]: up to 52%
- glomerular extracellular matrix expansion (periodic acid Schiff staining) ([2]; after 12 weeks of treatment): prevented glomerular extracellular matrix expansion
- glomerular volume (fractional volume of expansion by electron microscopy) ([2]; after 12 weeks of treatment): normalized
- albumin excretion rate in control animals ([2]; control type 2 diabetic animals, 2400 μg/kg): did not alter
- albumin excretion rate ([2]; db/db vs db/m mice, 400-2400 μg/kg, after 4 weeks of treatment, vs cyclic-GRGESP control): ameliorating albumin excretion rate in a dose dependent manner
- DN signaling proteins by Western blot [2, 7]: significant reduction
- glomerular expression extracellular matrix by Periodic Acid Schiff and electron microscopy [2, 7]: significant reduction
- reduction in albuminuria ([2]; type 2 diabetic mice, 400-2400 μg/kg): up to 52%
- albuminuria measured as albumin-to-creatinine ratio [3, 6]: ameliorated albuminuria
- glomerular expression of extracellular matrix proteins (fibronectin, collagen I and collagen IV) ([3]; after 12 weeks of treatment): reduced glomerular expression of extracellular matrix proteins
- reduction in albuminuria ([3]; type 1 diabetic mice, 400-2400 μg/kg): ~70%
- reduction in albuminuria ([4]; 21-week-old db/db mice, 2400-4800 μg/kg, 4 weeks i.p.): up to 71%
- expression of fibronectin, collagen I, collagen IV, TGF-β, ERK/MAPK and Nox4 (Western blot of kidney cortical tissues) ([4]; 2400-4800 μg/kg, 4 weeks i.p.): reduced expression
- glomerulosclerosis index (Periodic Schiff stained kidney section) ([4]; 2400-4800 μg/kg, 4 weeks i.p.): significant reduction
- mesangial expansion ([4]; 2400-4800 μg/kg, 4 weeks i.p.): reduced mesangial expansion
- reduction of albumin excretion rate ([4]; 3600 and 4800 μg/kg, 4 weeks intraperitoneal, dose-dependent): up to 71%
- glomerular extracellular matrix proteins (fibronectin, collagen I and collagen IV) ([4]; 3600 and 4800 μg/kg, 4 weeks, dose-dependent): reduced glomerular extracellular matrix proteins
- expression of known signaling molecules of DN ([4]; 3600 and 4800 μg/kg, dose-dependent): reduced the expression
- expression of extracellular matrix and signaling proteins of DN [1]: significantly reduced

Substance: cyc-RGDSPCG
- efficiency as inhibitor (experimentally verified) [5]: efficient inhibitors

Substance: cyc-RGDSPG
- efficiency as inhibitor (experimentally verified) [5]: successful candidate of inhibitors; also recorded: efficient inhibitors

Substance: cyc-RGDSPSG (cyclised or stapled)
- efficiency as inhibitor (experimentally verified) [5]: efficient inhibitors
